Read-outs that look alike come from different tables or passages of the source.
Key:
[1] = Porcine Coronary Arteries, from US 2014/0046254, cited from earlier work
[2] = target: bovine serum albumin (BSA) (Bos taurus, UniProt P02769); test: Albumin binding by ammonium sulfate precipitation and LCMS; format: in vitro ADME; details: bovine serum albumin (BSA) solution, 10 uM drug, 1.4 mg/mL BSA in normal saline, 30 minutes ambient, supernatant, average of four separate days
Method: Sirolimus-albumin binding has previously been reported. […] The drug spiked BSA solutions were mixed by inversion and allowed to equilibrate at ambient temperature for 30 minutes to allow drug binding to the albumin protein. 826 mg ammonium sulfate was next added to each sample and mixed by gentle inversion until the salt had completely dissolved and precipitate formed. Samples were then vortexed for 20 seconds then centrifuged for 6.5 minutes at 7200×g. To both supernatant and separated precipitate 0.750 mL methanol and 0.250 mL acetonitrile containing internal standard was added to each sample. Samples were tested for drug content by LCMS where the supernatant amount represents unbound drug and the precipitate amount the bound drug. Recovery verifiction tests were performed as above but using solutions of saline plus drug without BSA.
Values reported are the average of a separate test on each of four separate days.

Chain of bovine serum albumin (BSA) (P02769 25-607): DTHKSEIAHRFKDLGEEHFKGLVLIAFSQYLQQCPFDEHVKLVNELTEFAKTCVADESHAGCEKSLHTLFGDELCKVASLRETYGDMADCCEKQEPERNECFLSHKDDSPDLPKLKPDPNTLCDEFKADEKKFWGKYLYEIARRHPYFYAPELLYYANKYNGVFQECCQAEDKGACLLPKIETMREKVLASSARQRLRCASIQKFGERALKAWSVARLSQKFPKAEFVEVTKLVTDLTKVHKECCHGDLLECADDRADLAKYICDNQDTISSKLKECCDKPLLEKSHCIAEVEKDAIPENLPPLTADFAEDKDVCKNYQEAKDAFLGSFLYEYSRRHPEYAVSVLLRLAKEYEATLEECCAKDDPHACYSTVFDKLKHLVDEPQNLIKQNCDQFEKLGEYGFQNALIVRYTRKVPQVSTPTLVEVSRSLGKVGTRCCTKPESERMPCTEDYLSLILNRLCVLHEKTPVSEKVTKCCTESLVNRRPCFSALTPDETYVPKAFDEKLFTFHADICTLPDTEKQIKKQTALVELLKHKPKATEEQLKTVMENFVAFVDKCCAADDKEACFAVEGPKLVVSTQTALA

CO[C@H]1C[C@@H]2CC[C@@H](C)[C@@](O)(O2)C(=O)C(=O)N2CCCC[C@H]2C(=O)O[C@H]([C@H](C)C[C@@H]2CC[C@@H](OCCO)[C@H](OC)C2)CC(=O)[C@H](C)/C=C(\C)[C@@H](O)[C@@H](OC)C(=O)[C@H](C)C[C@H](C)/C=C/C=C/C=C/1C [US 2014/0046254 Everolimus, Everolimus]
Normalized Uptake (ng drug/mg tissue/μg drug on balloon) ([1]; 3 days): 0.02 ng/mg/µg

CO[C@H]1C[C@@H]2CC[C@@H](C)[C@@](O)(O2)C(=O)C(=O)N2CCCC[C@H]2C(=O)O[C@H]([C@H](C)C[C@@H]2CC[C@@H](O)[C@H](OC)C2)CC(=O)[C@H](C)/C=C(\C)[C@@H](O)[C@@H](OC)C(=O)[C@H](C)C[C@H](C)/C=C/C=C/C=C/1C [Sirolimus]
fraction unbound at 30 min, 10 uM [2]: 0.062

CO[C@H]1C[C@@H]2CC[C@@H](C)[C@@](O)(O2)C(=O)C(=O)N2CCCC[C@H]2C(=O)O[C@H]([C@H](C)C[C@@H]2CC[C@H](n3cnnn3)[C@H](OC)C2)CC(=O)[C@H](C)/C=C(\C)[C@@H](O)[C@@H](OC)C(=O)[C@H](C)C[C@H](C)/C=C/C=C/C=C/1C [US 2014/0046254 Zotarolimus, Zotarolimus]
Normalized Uptake (ng drug/mg tissue/μg drug on balloon) ([1]; 7 days): 0.04 ng/mg/µg

Source: US20190358369A1, “Drug releasing coatings for medical devices and methods of making same” (BIOTRONIK AG, priority 2016, published 2019)
